Literature values as cited in paper PMC8279981, “A first-in-human, phase 1 study of the NEDD8 activating enzyme E1 inhibitor TAS4464 in patients with advanced solid tumors” (Investigational New Drugs, 2021).
Where two headings read alike, the source gives them in different places.

Columns and labels:
[1] = system: patients; design: method as in PMID 26561559, PMID 25733005, PMID 27056178, PMID 26423795; settings: clinical trials; cited from earlier work
[2] = system: cells derived from macrophages; design: method as in PMID 22927439; settings: cited from earlier work
[3] = system: bleomycin-induced idiopathic pulmonary fibrosis models; design: method as in PMID 28469786; settings: cited from earlier work
[4] = system: rats; design: method as in PMID 27551465, PMID 22927439; settings: cited from earlier work

SMILES: NS(=O)(=O)OC[C@@H]1C[C@@H](n2ccc3c(N[C@H]4CCc5ccccc54)ncnc32)C[C@@H]1O [MLN4924]
- abnormal liver function tests (ALT and AST increased) [1]: one of the major AEs
- production of TNF-α [2]: suppress the production of TNF-α
- efficacy in pulmonary fibrosis models [3]: efficacy in bleomycin-induced idiopathic pulmonary fibrosis models has been shown
- AST, ALT, sorbitol dehydrogenase ([4]; combination of TNF-α and MLN4924): Increases in laboratory values
- AST, ALT, sorbitol dehydrogenase ([4]; rats, MLN4924 administration alone): no increases in AST, ALT, or sorbitol dehydrogenase
